Measurements published in patent publication US10519504B2, “Methods for treatment of oncological disorders using epimetabolic shifters, multidimensional intracellular molecules, or environmental influencers” (Berg LLC, priority 2009, dated 2019).

Assays:
ATP Citrate Lyase (ACL) = experiment: Western blot, ATP Citrate Lyase levels; type: cell-based, human; conditions: for ATP Citrate Lysase Normalized Intensity as % of control: glucose 5g, 48 h
Procedure: The whole cell pellets were resuspended one at a time in 1 mL of C7 buffer and transferred to labeled 15 mL tubes. The samples were then sonicated in the cold room on ice using 6 sonic pulses with the setting at #14. The samples were spun for a short time to 2500 g after sonication and the samples transferred to 2 ml tubes. The pH was verified of each sample (pH should be 9.0) using the foam remaining in the […] sample tubes.
After transfer each of the blots was placed in between 2 Whatman Filter papers and dried for 15-20 minutes. After drying the blots were labeled with the date, the type of samples and either blot 1 or blot 2 using a HB pencil. The molecular weight markers were outlined with the pencil and with single lines for the blue and a doublet for the colored markers. The blots were activated with methanol for 5 seconds, washed with water for 5 minutes, and TBST for 15 minutes. The blots were blocked for 1 hour with 5% blocking reagent in TBS-T at room temperature and then washed 3 times with TBS-T (1X−15′; 2X5′ each). Blot 1 was probed with the primary antibody for IDH1 (Cell Signaling #3997) in TBST with 5% BSA (at 1:1000 dilutions) and blot 2 with the rabbit polyclonal antibody for ATP Citrate Lyase in 5% BSA (Cell Signaling #4332) at 1:1000 dilution by incubation overnight at 4 deg C. with shaking. After the overnight incubation with primary antibodies, the blots were washed 3 times with TBS-T (1X−15′; 2X5′ each) and probed with the secondary antibody (antirabbit; 1:10,000 dilution) for 1 h on the orbital tilting shaker at room temperature. After 1 h of incubation with secondary antibodies, the blots were washed 3 times with TBS-T (1X−15′; 2X5′ each) and then incubated with ECF reagent for 5 mins and then each blot scanned with 5100 Fuji Laser scanner at 25 uM resolution, 16 bit, green laser, at 400V and at 500 V.
The samples were processed and run on a 4-12% Bis-Tris Novex NuPAGE gel as described above. The gels were run, transferred and stained essentially as described above.
The Isocitrate dehydrogenase blot was stripped by incubating for 30 minutes with methanol, followed by two 10 minute washes with TBS-T, then 30 minutes of incubation with stripping buffer at 50 deg C., and followed by two washes with 100 ml or more of TBS-T for 30′ each. The blot was scanned in laser scanner to check for complete stripping. The blot was activated with methanol for 5 seconds, washed with water for 5 minutes, and TBST for 15 minutes. The blot was blocked for 1 hour with 5% blocking reagent in TBS-T at room temperature and then washed 3 times with TBS-T (1X−15′; 2X5′ each). This was then probed with the rabbit polyclonal antibody for ATP Citrate Lyase in 5% BSA (Cell Signaling #4332) at 1:1000 dilution overnight at 4 deg C. with shaking. After the overnight incubation with primary antibody for ATP Citrate Lyase, the membrane was washed 3 times with TBS-T (1X−15′; 2X5′ each) and probed with the secondary antibody (antirabbit; 1:10,000 dilution) for 1 h on the orbital tilting shaker at room temperature. After 1 h of incubation with secondary antibodies, the blot was washed 3 times with TBS-T (1X−15′; 2X5′ each) and then incubated with ECF reagent for 5 minutes and then each blot scanned with 5100 Fuji Laser scanner at 25 uM resolution, 16 bit, green laser, at 400V and at 500 V.
In this experiment (western blot experiment 3), and in all of the experiments described below in this Example (i.e., western blot experiments 4 through 9), the cells were additionally treated with either 5 mM glucose (“5G”) or 22 mM glucose (“22G”). The samples derived from the cells were processed and run on a 4-12% Bis-Tris Novex NuPAGE gel as described above. The gels were run, transferred and stained essentially as described above.
The levels of IDH1, ATP citrate lyase and actin levels were determined by probing the blots with primary antibodies for IDH1, ATP citrate lyase and actin, essentially as described above.

[1] = rats; Bhagavan et al.; cited from earlier work

COC1=C(OC)C(=O)C(C/C=C(\C)CC/C=C(\C)CC/C=C(\C)CC/C=C(\C)CC/C=C(\C)CC/C=C(\C)CC/C=C(\C)CC/C=C(\C)CC/C=C(\C)CCC=C(C)C)=C(C)C1=O [Q10, Coenzyme Q10]
ATP Citrate Lysase Normalized Intensity as % of control (ATP Citrate Lyase (ACL); HepG2, 50 uM): 85 % of control | ATP Citrate Lysase Normalized Intensity as % of control (ATP Citrate Lyase (ACL); HepG2, 100 uM): 79 % of control | ATP Citrate Lysase Normalized Intensity as % of control (ATP Citrate Lyase (ACL); PACA2, 50 uM): 68 % of control | ATP Citrate Lysase Normalized Intensity as % of control (ATP Citrate Lyase (ACL); PACA2, 100 uM): 42 % of control | expression of ACL (ATP Citrate Lyase (ACL); cancer cells): dose-dependent decrease in the expression of ACL enzymes | expression of ACL (ATP Citrate Lyase (ACL); normal cells): trend towards increased expression of ACL | orally-administered CoQ10 absorbed [1]: 2-3%
